Data: ChEMBL document CHEMBL1201862, “PubChem BioAssay data set” (2004)
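Compound exposure: 48 hours, 5 concentrations, 96-well plates. GI50: concentration for 50% inhibition of growth.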 Activity calls are given as the source filed them. No stated cut-off is given here; in the data, active = GI50 up to about 1.1 µM and inactive = higher.

Key:
Assay in all cases: NCI-60 cell line screen, 48 h
HL-60 = tested on: HL-60
IGROV-1 = tested on: IGROV-1
OVCAR-4 = tested on: OVCAR-4
SK-MEL-5 = tested on: SK-MEL-5
Malme-3M = tested on: Malme-3M
U-251 = tested on: U-251
CCRF-CEM = tested on: CCRF-CEM
RPMI-8226 = tested on: RPMI-8226
Hs-578T = tested on: Hs-578T
UACC-62 = tested on: UACC-62
HCT-116 = tested on: HCT-116
BT-549 = tested on: BT-549
MOLT-4 = tested on: MOLT-4
HT-29 = tested on: HT-29
HOP-62 = tested on: HOP-62
OVCAR-8 = tested on: OVCAR-8
RXF 393 = tested on: RXF 393
SF-268 = tested on: SF-268
DU-145 = tested on: DU-145
SNB-19 = tested on: SNB-19
OVCAR-3 = tested on: OVCAR-3
EKVX = tested on: EKVX
786-0 = tested on: 786-0
NCI-H226 = tested on: NCI-H226
SF-295 = tested on: SF-295
NCI-H460 = tested on: NCI-H460
SK-MEL-2 = tested on: SK-MEL-2
COLO 205 = tested on: COLO 205
SR = tested on: SR
SF-539 = tested on: SF-539
ACHN = tested on: ACHN
T47D = tested on: T47D
CAKI-1 = tested on: CAKI-1
HCT-15 = tested on: HCT-15
MDA-MB-435 = tested on: MDA-MB-435
SNB-75 = tested on: SNB-75
KM12 = tested on: KM12
UO-31 = tested on: UO-31
UACC-257 = tested on: UACC-257
K562 = tested on: K562
SK-MEL-28 = tested on: SK-MEL-28
A498 = tested on: A498
PC-3 = tested on: PC-3
M14 = tested on: M14
NCI-H23 = tested on: NCI-H23
SK-OV-3 = tested on: SK-OV-3
A549 = tested on: A549
HCC 2998 = tested on: HCC 2998
NCI-H522 = tested on: NCI-H522
SN12C = tested on: SN12C
MCF7 = tested on: MCF7
NCI/ADR-RES = tested on: NCI/ADR-RES
MDA-MB-231 = tested on: MDA-MB-231
OVCAR-5 = tested on: OVCAR-5
TK-10 = tested on: TK-10
HOP-92 = tested on: HOP-92
LOX IMVI = tested on: LOX IMVI
MDA-N = tested on: MDA-N
SW-620 = tested on: SW-620

For COc1ccc(NC(/C(C(=O)c2ccccc2)=C(\O)C(=O)/C=C(\O)c2ccccc2)c2ccc(OC)cc2)cc1 (stereo not given), the GI50 (HL-60) was 34.1 µM (inactive), the GI50 (IGROV-1) was 35 µM (inactive) and the GI50 (OVCAR-4) was 30.5 µM (inactive). The GI50 (SK-MEL-5) was 49.3 µM (inactive), the GI50 (Malme-3M) was 21.2 µM (inactive) and the GI50 (U-251) was 38.9 µM (inactive). The GI50 (CCRF-CEM) was 32.8 µM (inactive), the GI50 (RPMI-8226) was 24.2 µM (inactive) and the GI50 (Hs-578T) was 36 µM (inactive). For the same molecule, the GI50 (UACC-62) was 52.4 µM (inactive), the GI50 (HCT-116) was 35.8 µM (inactive) and the GI50 (BT-549) was 71.6 µM (inactive). For the same molecule, the GI50 (MOLT-4) was 42.8 µM (inactive), the GI50 (HT-29) was 45.8 µM (inactive) and the GI50 (HOP-62) was 52.4 µM (inactive). The GI50 (OVCAR-8) was 59.6 µM (inactive), the GI50 (RXF 393) was 37.1 µM (inactive) and the GI50 (SF-268) was 43.1 µM (inactive). For the same molecule, the GI50 (DU-145) was 41.6 µM (inactive), the GI50 (SNB-19) was 65.8 µM (inactive) and the GI50 (OVCAR-3) was 21.6 µM (inactive). For the same molecule, the GI50 (EKVX) was 18.7 µM (inactive), the GI50 (786-0) was 31 µM (inactive) and the GI50 (NCI-H226) was > 100 µM (inactive). For the same molecule, the GI50 (SF-295) was 33 µM (inactive), the GI50 (NCI-H460) was 43.6 µM (inactive) and the GI50 (SK-MEL-2) was 23.6 µM (inactive). For the same molecule, the GI50 (COLO 205) was 31 µM (inactive), the GI50 (SR) was 31.6 µM (inactive) and the GI50 (SF-539) was 38.8 µM (inactive). The GI50 (ACHN) was 64.9 µM (inactive), the GI50 (T47D) was 24.5 µM (inactive) and the GI50 (CAKI-1) was 33.2 µM (inactive). For the same molecule, the GI50 (HCT-15) was 42.1 µM, the GI50 (MDA-MB-435) was 20.6 µM (inactive) and the GI50 (SNB-75) was 17.8 µM (inactive). For the same molecule, the GI50 (KM12) was 30.9 µM (inactive), the GI50 (UO-31) was 53.6 µM (inactive) and the GI50 (UACC-257) was 40.7 µM (inactive). For the same molecule, the GI50 (K562) was 44.3 µM (inactive), the GI50 (SK-MEL-28) was 32.9 µM (inactive) and the GI50 (A498) was 35.7 µM (inactive). The GI50 (PC-3) was 39.3 µM (inactive), the GI50 (M14) was 23.2 µM (inactive) and the GI50 (NCI-H23) was 47 µM (inactive). For the same molecule, the GI50 (SK-OV-3) was 39.3 µM (inactive), the GI50 (A549) was 28.6 µM (inactive) and the GI50 (HCC 2998) was 26.6 µM (inactive). For the same molecule, the GI50 (NCI-H522) was 15.2 µM (inactive), the GI50 (SN12C) was > 100 µM (inactive) and the GI50 (MCF7) was 39.5 µM (inactive). For the same molecule, the GI50 (NCI/ADR-RES) was 40.3 µM (inactive), the GI50 (MDA-MB-231) was > 100 µM (inactive) and the GI50 (OVCAR-5) was > 100 µM (inactive). For the same molecule, the GI50 (TK-10) was 30.3 µM (inactive) and the GI50 (HOP-92) was 7.6 µM (inactive).
With CC1(C)OCC2OC3([C@H]4OC(C)(C)O[C@@H]4CO)OC(C)(C)OC3C2O1 (stereo not given in full) the GI50 (LOX IMVI) was > 100 µM (inactive), the GI50 (IGROV-1) was > 100 µM (inactive) and the GI50 (OVCAR-4) was > 100 µM (inactive). The GI50 (SK-MEL-5) was > 100 µM (inactive), the GI50 (U-251) was > 100 µM (inactive) and the GI50 (CCRF-CEM) was > 100 µM (inactive). The GI50 (RPMI-8226) was > 100 µM (inactive), the GI50 (UACC-62) was > 100 µM (inactive) and the GI50 (HCT-116) was > 100 µM (inactive). For the same molecule, the GI50 (BT-549) was > 100 µM (inactive), the GI50 (MOLT-4) was > 100 µM (inactive) and the GI50 (HT-29) was > 100 µM (inactive). For the same molecule, the GI50 (HOP-62) was > 100 µM (inactive), the GI50 (OVCAR-8) was > 100 µM (inactive) and the GI50 (RXF 393) was > 100 µM (inactive). The GI50 (DU-145) was > 100 µM (inactive), the GI50 (SNB-19) was > 100 µM (inactive) and the GI50 (OVCAR-3) was > 100 µM (inactive). The GI50 (EKVX) was > 100 µM (inactive), the GI50 (786-0) was > 100 µM (inactive) and the GI50 (NCI-H226) was > 100 µM (inactive). The GI50 (SF-295) was > 100 µM (inactive), the GI50 (NCI-H460) was > 100 µM (inactive) and the GI50 (SK-MEL-2) was > 100 µM (inactive). For the same molecule, the GI50 (COLO 205) was > 100 µM (inactive), the GI50 (SR) was > 100 µM (inactive) and the GI50 (SF-539) was > 100 µM (inactive). The GI50 (ACHN) was > 100 µM (inactive), the GI50 (T47D) was > 100 µM (inactive) and the GI50 (CAKI-1) was > 100 µM (inactive). The GI50 (HCT-15) was over 100 µM, the GI50 (MDA-MB-435) was > 100 µM (inactive) and the GI50 (SNB-75) was > 100 µM (inactive). For the same molecule, the GI50 (KM12) was > 100 µM (inactive), the GI50 (UO-31) was > 100 µM (inactive) and the GI50 (UACC-257) was > 100 µM (inactive). The GI50 (MDA-N) was > 100 µM (inactive), the GI50 (K562) was > 100 µM (inactive) and the GI50 (SK-MEL-28) was > 100 µM (inactive). The GI50 (A498) was > 100 µM (inactive), the GI50 (PC-3) was > 100 µM (inactive) and the GI50 (M14) was > 100 µM (inactive). For the same molecule, the GI50 (SW-620) was > 100 µM (inactive), the GI50 (NCI-H23) was > 100 µM (inactive) and the GI50 (A549) was > 100 µM (inactive). The GI50 (HCC 2998) was > 100 µM (inactive), the GI50 (SN12C) was > 100 µM (inactive) and the GI50 (MCF7) was > 100 µM (inactive). For the same molecule, the GI50 (NCI/ADR-RES) was > 100 µM (inactive), the GI50 (MDA-MB-231) was > 100 µM (inactive) and the GI50 (OVCAR-5) was > 100 µM (inactive). The GI50 (HOP-92) was > 100 µM (inactive).
CCCCCCc1cc2cc(C(=O)Nc3ccccc3F)c(=N)oc2cc1O was tested, and the GI50 (LOX IMVI) was 5.24 µM (inactive), the GI50 (HL-60) was 6.24 µM (inactive) and the GI50 (IGROV-1) was 3.34 µM (inactive). The GI50 (OVCAR-4) was 4.93 µM (inactive), the GI50 (SK-MEL-5) was 3.19 µM (inactive) and the GI50 (Malme-3M) was 6.12 µM (inactive). For the same molecule, the GI50 (U-251) was 4.81 µM (inactive), the GI50 (CCRF-CEM) was 4.76 µM (inactive) and the GI50 (RPMI-8226) was 3.66 µM (inactive). For the same molecule, the GI50 (Hs-578T) was 11.4 µM (inactive), the GI50 (UACC-62) was 6.55 µM (inactive) and the GI50 (HCT-116) was 5.7 µM (inactive). The GI50 (BT-549) was 5.36 µM (inactive), the GI50 (MOLT-4) was 3.21 µM (inactive) and the GI50 (HT-29) was 24.7 µM (inactive). For the same molecule, the GI50 (HOP-62) was 14.3 µM (inactive), the GI50 (OVCAR-8) was 2.89 µM (inactive) and the GI50 (SF-268) was 12.4 µM (inactive). For the same molecule, the GI50 (DU-145) was 9.31 µM (inactive), the GI50 (SNB-19) was 8.83 µM (inactive) and the GI50 (OVCAR-3) was 6.38 µM (inactive). For the same molecule, the GI50 (EKVX) was 10.4 µM (inactive), the GI50 (786-0) was 11.9 µM (inactive) and the GI50 (SF-295) was 12.1 µM (inactive). The GI50 (NCI-H460) was 7.62 µM (inactive), the GI50 (SK-MEL-2) was 7.21 µM (inactive) and the GI50 (COLO 205) was 19.3 µM (inactive). For the same molecule, the GI50 (SR) was 2.83 µM (inactive), the GI50 (SF-539) was 12.6 µM (inactive) and the GI50 (ACHN) was 6.08 µM (inactive). For the same molecule, the GI50 (T47D) was 3.51 µM (inactive), the GI50 (CAKI-1) was 6.32 µM (inactive) and the GI50 (HCT-15) was 3.93 µM. For the same molecule, the GI50 (MDA-MB-435) was 3.39 µM (inactive), the GI50 (KM12) was 4.01 µM (inactive) and the GI50 (UO-31) was 4.27 µM (inactive). For the same molecule, the GI50 (UACC-257) was 6.64 µM (inactive), the GI50 (MDA-N) was 7.29 µM (inactive) and the GI50 (K562) was 3.7 µM (inactive). For the same molecule, the GI50 (SK-MEL-28) was 7.69 µM (inactive), the GI50 (A498) was 14.4 µM (inactive) and the GI50 (PC-3) was 11.2 µM (inactive). The GI50 (M14) was 10.2 µM (inactive), the GI50 (SW-620) was 12.6 µM (inactive) and the GI50 (NCI-H23) was 3.18 µM (inactive). For the same molecule, the GI50 (SK-OV-3) was 12.5 µM (inactive), the GI50 (A549) was 6.97 µM (inactive) and the GI50 (HCC 2998) was 18.7 µM (inactive). For the same molecule, the GI50 (NCI-H522) was 2.69 µM (inactive), the GI50 (MCF7) was 3.85 µM (inactive) and the GI50 (NCI/ADR-RES) was 2.64 µM (inactive). For the same molecule, the GI50 (OVCAR-5) was 21.2 µM (inactive).
